One data set relates to glucuronyl transferase. Put plainly: Conjugation of microsomal skatole metabolites with glucuronic acid (Trial II-c). The format is in vitro ADME. Conditions: pig liver microsomes, 1 mM UDP-GA, 30 min. As to the method:
(§1) Trial II. For evaluation of skatole metabolite production (Trial II-a, n=22), 1 mg/ml of liver microsomes were incubated in Buffer 1,1 mM NADPH, 1 mM NADH, and 0.01 mM skatole in a total volume of 2 ml for 30 min at 37° C. as previously described (Babol et al., 1997). To determine which microsomal skatole metabolites are conjugated with sulfate (Trial II-b, n=3), the reaction mixture was first incubated for 30 min as in Trial II-a. PAPS was then added to 1 mM final concentration and the incubation continued for 30, 60 and 90 min. Control incubations were performed for the same period of time with no PAPS added. Assays to evaluate the conjugation of skatole metabolites with glucuronic acid (Trial II-c, n=3) were conducted in a similar way by adding 1 mM of UDP-GA after 30 min of initial incubation and continuing the incubation for a further 7.5, 15 and 30 min. […]
(§2) Trial II. […] The metabolites were separated with RP C18 column and detected by measuring UV absorbance at 250 nm and fluorescence with excitation and emission wavelengths set at 285 and 340 nm.
(§3) Trial II. The effect of time of incubation of skatole metabolites with PAPS (Trial I1-b) and UDPGA (Trial I1-c) on the concentrations of the metabolites was analyzed using untransformed values with the GLM procedure. […] The differences in the metabolic activities among the groups were analyzed with the GLM procedure.
In general terms: Liver microsomes are vesicles of endoplasmic reticulum, rich in cytochrome P450 enzymes.

For a further data set, the system named is sulfotransferase. Kind of data set: Conjugation of microsomal skatole metabolites with sulfate (Trial II-b). It is filed as in vitro ADME. The note with it: pig liver microsomes, 1 mM PAPS, 90 min. As to the method: as §1, §2, §3
In the next data set the test system is cytochrome P450. As for the experimental part:
The metabolism of skatole was assayed in a medium containing 50 mM Tris-HCL buffer, pH 7.4, 10 mM potassium phosphate, 0.1 mM EDTA, 20% glycerol, 0.01 mM skatole and 1 mg/mL microsomel protein in a total volume of 2 mL. The reactions were started by addition of NADH and NADPH to 1 mM final concentration of each after 3 min of preincubation at 37° C. After 30 min at 37° C., the reactions were terminated by addition of 2 mL of ice-cold 0.2 M ammonium acetate buffer, pH 5.0.
Those incubations with no inhibitor added were regarded as controls. The effect of different P450 inhibitors on skatole metabolism was evaluated under the same conditions by including different concentrations of P450 inhibitors into the medium before preincubation.
Each assay was performed in duplicate. […] After adding ammonium acetate buffer, 5 μL of 0.01 mg/mL indole-3-acetonitrile was added to the reaction mixture as an internal standard. The mixture was then passed through a solid phase extraction tC18 cartridge (Waters Co., Milford, Mass.) previously conditioned with 2 mL of methanol and then 2 mL of water. The column was washed with 1 mL of water and skatole metabolites were eluted with 2×0.5 mL of acetonitrile. The acetonitrile was removed under a gentle stream of nitrogen at 40° C. and the metabolites were resuspended in 200 μl of acetonitrile for HPLC analysis. The HPLC equipment included a Spectra-Physics (San Jose, Calif., USA) SP8800 pump, SP8800 autosampler and SP4290 integrator, and a Phenomenex (Torrance, Calif., USA) Prodigy ODS-2 C18, 250×4.6 mm, 5 μm column. […] Injection volume was 100 μl.
For the purpose of the analysis, peak areas of the metabolites in control incubations were considered as 100%. Peak areas of the metabolites in the incubations with inhibitors were transformed to values of those for controls. The statistical model included the effect of the concentration of inhibitor and the effect of animal.

For data set [1], the system named is thermostable phenol sulfotransferase. Put plainly: Sulfation of 5-OH-3MI by liver cytosol with phenolsulfotransferase inhibitors (Trial III). The format is biochemical. Conditions: pig liver cytosol, 0.01 mM 5-OH-3MI, 1 mM PAPS, 10 min. As to the method:
Trial III. The assay of 5-OH-3MI sulfation in Trial III utilized 1 mg cytosolic protein incubated with 0.01 mM 5-OH-3MI and 1 mM PAPS in 0.05M Tris/HCl pH 7.4 buffer containing 5 mM MgC12 in a total volume of 250 μl. The incubations were carried out in a shaking water bath at 37° C. for 10 min and the reaction was stopped with 250 μL ice-cold acetonitrile. After the addition of acetonitrile, the mixture was vortexed and centrifuged at 4,000 g for 15 min. A 400 μL aliquot of the clear supernatant was diluted with 400 μL water and 100 μL of the mixture was analyzed immediately by high-performance liquid chromatography (HPLC) as described below. Conjugates were identified based on the following criteria: (1) no peaks corresponding to conjugates appeared when cytosol and/or PAPS were excluded from the incubations; (2) no peaks corresponding to conjugates appeared when boiled cytosol was used, and (3) the peaks corresponding to the conjugates disappeared after addition of 10 μl of type H-2 sulfatase to the incubation mixture and further incubation for 3 h at 37° C. in a shaking water bath. Sulfation activity was measured as the formation of sulfoconjugate per minute per mg of cytosolic protein.
The effects of the phenolsulfotransferase inhibitors PCP and DCNP on the sulfation of 5-OH-3MI were determined by including different final concentrations of PCP or DCNP (0.001, 0.01, 0.1, 1, 10, 100 μM) in the assays. PCP was dissolved in methanol (final assay concentration 1%, v/v) and control incubations for PCP inihibition studies contained 1% methanol. DCNP was dissolved in incubation buffer.
Trial III. 5-OH-skatole and its sulfate conjugate were separated using a previously reported binary gradient system method (Hernandez et al., 1991) with a reverse-phase Prodigy ODS, 5 μm, 250×4.6 mm column (Phenomenex, Torrance, Calif., USA). The mobile phase consisted of 0.05M ammonium acetate buffer pH 5.0, at a flow rate of 1.2 ml/min. A 25-min linear gradient from 10 to 60% acetonitrile was used, with initiation of the gradient 2 min after sample injection. 5-OH-skatole and its conjugate were determined by their fluorescence (excitation wavelength of 285 nm, emission wavelength of 350 nm). Typical retention times for 5-OH-skatole and its conjugate were 18.5 and 13.4 min, respectively.

In another data set the target is CYP2E1 (Sus scrofa, UniProt P79383). The note with it: uncastrated Yorkshire male pigs; 0.5 g/kg BW daily by gavage, day 14 to day 50; after day 27; P<0.05. As for the experimental part: Eight uncastrated Yorkshire male pigs were utilized in the study. Four males were assigned to the control group while the remaining four were treated with 0.5 g/kg BW of ethanol daily by gavage. Ethanol is a well-established inducer of CYP2E1. Treatment began at day 14 and continued until day 50. Blood samples were collected weekly and plasma skatole levels were measured by HPLC.
Sequence of CYP2E1 (P79383 whole entry): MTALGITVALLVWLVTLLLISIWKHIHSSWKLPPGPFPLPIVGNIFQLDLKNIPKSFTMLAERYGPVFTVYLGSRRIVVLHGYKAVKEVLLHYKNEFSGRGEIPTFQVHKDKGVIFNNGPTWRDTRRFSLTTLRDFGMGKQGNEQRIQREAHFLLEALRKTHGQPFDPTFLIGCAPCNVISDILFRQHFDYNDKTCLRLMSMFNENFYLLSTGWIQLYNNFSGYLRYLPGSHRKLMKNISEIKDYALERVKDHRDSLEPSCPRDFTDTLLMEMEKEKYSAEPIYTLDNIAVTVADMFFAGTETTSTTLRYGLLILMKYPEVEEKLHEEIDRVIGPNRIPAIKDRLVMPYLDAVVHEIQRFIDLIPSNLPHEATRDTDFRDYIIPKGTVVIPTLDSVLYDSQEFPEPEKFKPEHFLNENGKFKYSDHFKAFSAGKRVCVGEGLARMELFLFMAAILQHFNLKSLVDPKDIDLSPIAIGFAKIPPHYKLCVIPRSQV

Structures are written as SMILES. Where a name gives a salt, the structure may show the parent alone.

In the case of `Cc1c[nH]c2cc(O)ccc12` [pro-MII, 6-Hydroxy-3-methylindole], in the data set on glucuronyl transferase, the “Concentration in incubation with UDPGA, % of control incubations” value is recorded as 20%. Further, the “Concentration in incubation with PAPS, % of control” value with sulfotransferase is reported as 40%.
`CCCC(C(=O)OCCN(CC)CC)(c1ccccc1)c1ccccc1` [SKF 525A, SKF 525A hydrochloride (Proadifen)]: in the data set with cytochrome P450, the “Amount of skatole remaining in the reaction mixture after incubation versus control” value is given as “not affected”; the “Formation of F-2, effect in words” value is “reduced”; the “Formation of F-3, effect in words” value is “reduced”; the “Formation of UV-3, effect in words” value is listed as “reduced”.
On to `O=[N+]([O-])c1cc(Cl)c(O)c(Cl)c1` [DCNP, 2,6-dichloro-4-nitrophenol], for which the “5-sulfatoxyskatole production, % of the control” value was found to be 13.8% in data set [1] (inhibitor 10 μM) and 7.1% in data set [1] (inhibitor 100 μM).
Take `CCO` [ethanol]: the “Plasma skatole levels versus control group” value at CYP2E1 is recorded as “significantly lower”.
On to `Cc1c[nH]c2ccccc12` [skatole, 3-methylindole], for which the “Concentration in incubation with UDPGA, % of control incubations” value in the data set on glucuronyl transferase worked out at 126.1%.
Consider `CC(C)(C(=O)c1cccnc1)c1cccnc1` [metyrapone], for which, in the data set on cytochrome P450, the “Amount of skatole remaining in the reaction mixture after incubation versus control” value is “higher” and the “Formation of UV-3, effect in words” value was “reduced”.
Regarding `C=CCSCC=C` [DAS, diallyl sulfide], in the data set on cytochrome P450, the “Formation of all the other skatole metabolites, except for F-1” value is “inhibited” and the “Skatole disappearance, effect in words” value is on record as “reduced”.
As to `Oc1c(Cl)c(Cl)c(Cl)c(Cl)c1Cl` [PCP, Pentachlorophenol], the “5-sulfatoxyskatole production, % of the control” value in data set [1] (inhibitor 10 μM) amounted to 35.3%; in data set [1] (inhibitor 100 μM), 8%.

(Values after patent US20050216965A1, “Method of detecting and reducing boar taint” (UNIVERSITY OF GUELPH, priority 1998, published 2005).)
